Source: patent publication US9714243B2, “4-pyridinonetriazine derivatives as HIV integrase inhibitors” (Merck Sharp & Dohme Corp., priority 2012, dated 2017)
Read-outs that look alike come from different tables or passages of the source.

System: HIV-1 (NL4-3 strain)
Experiment: Assay for inhibition of HIV replication (ViKinG; infected MT4-GFP cells)
Assay type: cell-based
Description: Assay for inhibition of HIV replication
MT4-GFP cells (250,000 cells/ml) were bulk-infected with HIV-1 (NL4-3 strain) at low multiplicity of infection (MOI) in RPMI+10% FBS for 24 hours. […] Test compounds were serial-diluted in DMSO on ECHO. The infected MT4-GFP cells were added to a 384-well poly-D-lysine coated black plate with clear bottom in which the diluted test compounds were placed. The cells were seeded at 8,000 cells per well and the final DMSO concentration was 0.4%. The infected cells (Green GFP cells) were quantified at both 24 and 48 hours post incubation using Acumen eX3. Viral reproductive ratio (R0) was determined using the number of infected cells at 48 hours divided by the number of infected cells at 24 hours. Percent viral growth inhibition was calculated by [1−(R−Rtripledrug)/(RDMSO−Rtripledrug)]*100. Compound potency IP or IC50 was determined by a 4-parameter dose response curve analysis.

[1] = Human immunodeficiency virus 1, NL43, MT4-GFP cells infected with HIV-1 NL4-3, 0% normal human serum (NHS), read-out: ViKinG IP (nM) with 0% NHS
[2] = Human immunodeficiency virus 1, NL43, MT4-GFP cells infected with HIV-1 NL4-3, 10% normal human serum (NHS), read-out: ViKinG IP (nM) with 10% NHS
[3] = Human immunodeficiency virus 1, NL43, MT4-GFP cells infected with HIV-1 NL4-3, 100% normal human serum (NHS), read-out: ViKinG IP (nM) with 100% NHS
[4] = MT4-GFP cells infected with HIV-1 NL4-3, 0% normal human serum (NHS), read-out: ViKinG IP (nM) with 0% NHS
[5] = MT4-GFP cells infected with HIV-1 NL4-3, 10% normal human serum (NHS), read-out: ViKinG IP (nM) with 10% NHS
[6] = MT4-GFP cells infected with HIV-1 NL4-3, 100% normal human serum (NHS), read-out: ViKinG IP (nM) with 100% NHS

Row | SMILES | IC50 [1] [nM] | IC50 [2] [nM] | IC50 [3] [nM] | IC50 [4] [nM] | IC50 [5] [nM] | also measured
1 | C[C@@H]1CC2(CC[C@@H]1C(=O)N(C)C)N(C)C(=O)c1c(O)c(=O)c(-c3nnc(Cc4ccc(F)cc4)s3)cn1N2C (stereo partly shown) [Compound 150] | 13.3 | 18.9 | 221 | – | – | –
2 | CCN1C(=O)c2c(O)c(=O)c(-c3nnc(Cc4ccc(F)cc4F)s3)cn2N(C)C12CC[C@@H]1C[C@@H]12 (stereo partly shown) [Compound 39] | 0.213 | 77.7 | – | – | – | –
3 | CCN1C(=O)c2c(O)c(=O)c(-c3nnc(Cc4ccc(F)cc4F)s3)cn2N(C)C1C(C)(C)C (racemic) [Compound 16] | – | 57 | 1030 | – | – | –
4 | CN1n2cc(-c3nnc(Cc4ccc(F)cc4F)s3)c(=O)c(O)c2C(=O)NC12CC[C@@H]1C[C@@H]12 (stereo partly shown) [Compound 196] | 1.61 | – | 307 | – | – | –
5 | CN1C(=O)c2c(O)c(=O)c(-c3nnc(Cc4ccc(F)cc4)s3)cn2N(C)C12CCC(O)CC2 (stereo not shown) [Compound 13] | – | – | – | 23.8 | 86.9 | IC50 [6]: 862 nM
6 | C[C@H]1CC2(CC[C@@H]1C(=O)N(C)C)N(C)C(=O)c1c(O)c(=O)c(-c3nnc(Cc4ccc(F)cc4)s3)cn1N2C (stereo partly shown) [Compound 149] | – | 43.7 | – | – | – | –
7 | CCN1C(=O)c2c(O)c(=O)c(-c3nnc(Cc4ccc(F)cc4F)s3)cn2N(C)C12CCC(CO)CC2 (stereo not shown) [Compound 55] | 6.46 | – | 279 | – | – | –
8 | CCN1C(=O)c2c(O)c(=O)c(-c3nnc(Cc4ccc(F)cc4F)s3)cn2N(C)C12CCCC(=O)C2 (racemic) [Compound 43] | 40.7 | 275 | – | – | – | –
9 | CN1C2CCCCN2C(=O)c2c(O)c(=O)c(-c3nnc(Cc4ccc(F)cc4)s3)cn21 (stereo not shown) [Compound 153] | – | – | 1430 | – | 16.5 | –
10 | CN1C2CCCCN2C(=O)c2c(O)c(=O)c(-c3nnc(Cc4ccc(F)cc4F)s3)cn21 (stereo not shown) [Compound 157] | – | 14.2 | 613 | – | – | –
11 | CCOP(=O)(OCC)C1CCCC2(C1)N(CC)C(=O)c1c(O)c(=O)c(-c3nnc(Cc4ccc(F)cc4F)s3)cn1N2C (stereo not shown) [Compound 25] | – | 40.5 | – | – | – | –
12 | CN1C(=O)c2c(O)c(=O)c(-c3nnc(Cc4ccc(F)cc4F)s3)cn2N(C)C12CCC(C(=O)NCC(F)(F)F)CC2 (stereo not shown) [Compound 111] | – | – | – | 26.6 | 193 | –
13 | CN1C2CCCCN2C(=O)c2c(O)c(=O)c(-c3nnc(Cc4ccc(F)cc4F)s3)cn21 (stereo not shown) [Compound 158] | – | – | – | – | 17.7 | IC50 [6]: 503 nM
14 | CCN1C(=O)c2c(O)c(=O)c(-c3nnc(Cc4ccc(F)cc4F)s3)cn2N(C)C12C[C@H]1CC(CC(=O)OC)C[C@H]1C2 (stereo partly shown) [Compound 36] | – | 52.6 | – | – | – | –
15 | CCN1C(=O)c2c(O)c(=O)c(-c3nnc(Cc4ccc(F)cc4F)s3)cn2N(C)C12CCC(CC(=O)OC)C2 (stereo not shown) [Compound 20] | – | 28.7 | 218 | – | – | –
16 | CCN1C(=O)c2c(O)c(=O)c(-c3nnc(Cc4ccc(F)cc4)s3)cn2N(C)C12CC(C(=O)OC)C2 (stereo not shown) [Compound 224] | – | 49.3 | 361 | – | – | –
17 | CCN1C(=O)c2c(O)c(=O)c(-c3nnc(Cc4ccc(F)cc4F)s3)cn2N(C)C12CCC(c1nc(C)no1)CC2 (stereo not shown) [Compound 47] | – | – | – | 11.6 | – | IC50 [6]: 186 nM
18 | CN1C(=O)c2c(O)c(=O)c(-c3nnc(Cc4ccc(F)cc4F)s3)cn2N(C)C12CCC(C(=O)NCC1CCOC1)CC2 (stereo not shown) [Compound 129] | – | – | – | 67.7 | 1080 | –
19 | COCCN1C(=O)c2c(O)c(=O)c(C(=O)NCc3ccc(F)cc3)cn2[C@@H](C)C12CC2 [Compound 184] | 2.66 | – | 178 | – | – | –
20 | CCN1C(=O)c2c(O)c(=O)c(-c3nnc(Cc4ccc(F)cc4F)s3)cn2N(C)C12CCC(C(=O)OC)C2 (stereo not shown) [Compound 19] | – | 22.8 | 314 | – | – | –
21 | CN1C2CCCCN2C(=O)c2c(O)c(=O)c(-c3nnc(Cc4ccc(F)cc4)s3)cn21 (stereo not shown) [Compound 154] | – | – | – | – | 33.9 | IC50 [6]: 1590 nM
22 | CN1C(=O)c2c(O)c(=O)c(-c3nnc(Cc4ccc(F)cc4F)s3)cn2N(C)C12CCC(C(=O)O)CC2 (stereo not shown) [Compound 88] | – | – | – | 1280 | 4200 | –
23 | CN1C(=O)c2c(O)c(=O)c(-c3nnc(Cc4ccc(F)cc4F)s3)cn2N(C)C12CCC(C(=O)NCc1cncs1)CC2 (stereo not shown) [Compound 133] | – | – | – | 190 | 548 | –
24 | CCN1C(=O)c2c(O)c(=O)c(-c3nnc(Cc4ccc(F)cc4F)s3)cn2N(C)C12CCC(OC(C)C)CC2 (stereo not shown) [Compound 62] | – | – | – | 8.11 | – | IC50 [6]: 159 nM
25 | CN(C)C(=O)C1(C)CCC2(CC1)N(C)C(=O)c1c(O)c(=O)c(-c3nnc(Cc4ccc(F)cc4)s3)cn1N2C (stereo not shown) [Compound 148] | – | – | – | – | 8.6 | IC50 [6]: 119 nM

Row | SMILES | IC50 [1] [nM] | IC50 [2] [nM] | IC50 [3] [nM] | IC50 [4] [nM] | IC50 [5] [nM] | also measured
26 | CN1C(=O)c2c(O)c(=O)c(-c3nnc(Cc4ccc(F)cc4F)s3)cn2N(C)C12CCC(C(=O)NCC1(O)CC1)CC2 (stereo not shown) [Compound 124] | – | – | – | 11.3 | 22.6 | –
27 | COCCN1C(=O)c2c(O)c(=O)c(-c3cn(Cc4ccc(F)cc4F)nn3)cn2CC12CCC2 [Compound 214] | 24.4 | – | 205 | – | – | –
28 | CN1C(=O)c2c(O)c(=O)c(-c3nnc(Cc4ccc(F)cc4F)s3)cn2N(C)C12CC[C@@H](C(=O)NC1CC1)C(C)(C)C2 (stereo partly shown) [Compound 142] | 5.63 | – | 558 | – | – | –
29 | CCN1C(=O)c2c(O)c(=O)c(-c3nnc(Cc4ccc(F)cc4F)s3)cn2N(C)C12CCC(OC)CC2 (stereo not shown) [Compound 26] | – | 9.22 | 115 | 2.83 | – | –
30 | CN1C2COCCN2C(=O)c2c(O)c(=O)c(-c3nnc(Cc4ccc(F)cc4)s3)cn21 (stereo not shown) [Compound 161] | – | – | – | – | 41.1 | IC50 [6]: 465 nM
31 | CCOP(=O)(OCC)C1CCC2(C1)N(CC)C(=O)c1c(O)c(=O)c(-c3nnc(Cc4ccc(F)cc4F)s3)cn1N2C (stereo not shown) [Compound 37] | – | – | 186 | – | 18.2 | –
32 | COC(=O)[C@@]12C[C@@H]1CCC21NC(=O)c2c(O)c(=O)c(-c3nnc(Cc4ccc(F)cc4F)s3)cn2N1C (mixture of isomers) [Compound 204] | 2.81 | 9.04 | 146 | – | – | –
33 | COC(=O)[C@]12C[C@H]1CCC21N(C)C(=O)c2c(O)c(=O)c(-c3nnc(C(C)c4ccc(F)cc4F)s3)cn2N1C (stereo partly shown) [Compound 206] | 15.4 | 62.4 | – | – | – | –
34 | COCCN1C(=O)c2c(O)c(=O)c(C(=O)NCc3ccc(F)cc3F)cn2N(C)C12CC[C@@H]1C[C@@H]12 (stereo partly shown) [Compound 190] | 29 | – | 2910 | – | – | –
35 | CN1C(=O)c2c(O)c(=O)c(C(=O)NCc3ccc(F)cc3F)cn2CC12CCC2 [Compound 178] | 2.73 | – | 233 | – | – | –
36 | CCN1C(=O)c2c(O)c(=O)c(-c3nnc(Cc4ccc(F)cc4)s3)cn2N(C)C1(C)COC (racemic) [Compound 223] | – | – | 369 | – | – | –
37 | CN1C(=O)c2c(O)c(=O)c(-c3cn(Cc4ccc(F)cc4F)nn3)cn2CC12CCC2 [Compound 215] | 9.93 | – | 76.1 | – | – | –
38 | CN1C(=O)c2c(O)c(=O)c(-c3nnc(Cc4ccc(F)cc4F)s3)cn2N(C)C12CCC(C(=O)NCc1cn(C)cn1)CC2 (stereo not shown) [Compound 132] | – | – | – | 109 | 173 | –
39 | CN1n2cc(-c3nnc(Cc4ccc(F)cc4F)s3)c(=O)c(O)c2C(=O)N2CCCC21CO (racemic) [Compound 163] | 8.22 | – | 499 | – | – | –
40 | CN1C(=O)c2c(O)c(=O)c(-c3nnc(Cc4ccc(F)cc4F)s3)cn2N(C)C12CCC(C(=O)NCc1cnoc1)CC2 (stereo not shown) [Compound 127] | 112 | – | – | – | 376 | –
41 | CN1C(=O)c2c(O)c(=O)c(-c3nnc(Cc4ccc(F)cc4F)s3)cn2N(C)C12CCC(C)(C(=O)O)CC2 (stereo not shown) [Compound 84] | – | – | – | 51.5 | 209 | –
42 | CCN1C(=O)c2c(O)c(=O)c(C(=O)NCc3ccc(F)cc3F)cn2CC12CC2 [Compound 179] | 2.86 | – | 1360 | – | – | –
43 | CN1C(=O)c2c(O)c(=O)c(-c3nnc(Cc4ccc(F)cc4F)s3)cn2N(C)C12CCC(C(=O)NCC1CCS(=O)(=O)C1)CC2 (stereo not shown) [Compound 138] | – | – | – | 445 | 1180 | –
44 | CCN1C(=O)c2c(O)c(=O)c(-c3nnc(Cc4ccc(F)cc4)s3)cn2N(C)C12CCC(C(=O)N(C)C)CC2 (stereo not shown) [Compound 94] | – | – | 130 | – | 9.83 | –
45 | CN1C(=O)c2c(O)c(=O)c(-c3nnc(Cc4ccc(F)cc4F)s3)cn2N(C)C12CCC(C(=O)N1CCC(F)(F)C1)CC2 (stereo not shown) [Compound 118] | – | – | – | 14.4 | 8.43 | –
46 | CCN1C(=O)c2c(O)c(=O)c(-c3nnc(Cc4ccc(F)cc4)s3)cn2N(C)C12CC(O)C2 (stereo not shown) [Compound 11] | – | 231 | 4200 | – | – | –
47 | CCN1C(=O)c2c(O)c(=O)c(C(=O)NCc3ccc(F)cc3F)cn2N(C)C12CC[C@@H]1C[C@@H]12 (stereo partly shown) [Compound 188] | 1.49 | – | 406 | – | – | –
48 | CCc1noc(C2CCC3(CC2)N(CC)C(=O)c2c(O)c(=O)c(-c4nnc(Cc5ccc(F)cc5F)s4)cn2N3C)n1 (stereo not shown) [Compound 57] | 18.1 | – | 145 | – | – | –
49 | CN1C(=O)c2c(O)c(=O)c(-c3nnc(Cc4ccc(F)cc4F)s3)cn2N(C)C12CCC(C(=O)NCc1cn(C)cn1)CC2 (stereo not shown) [Compound 131] | – | – | – | 459 | 642 | –
50 | CN1C(=O)c2c(O)c(=O)c(-c3nnc(Cc4ccc(F)cc4F)s3)cn2N(C)C12CCC(C(N)=O)CC2 (stereo not shown) [Compound 107] | – | – | – | 4.96 | 46.4 | –
